Laboratory results from patent US5668170A, “Composition and method enhancing transdermal electrotransport agent delivery” (ALZA Corporation, priority 1996, dated 1997).
Values joined by “and” are separate entries in the source; they are usually repeats but may differ in a detail not shown here. Equal entries are not always repeated. Structures can show the parent of a compound that is named as a salt. Where two headings read alike, the source gives them in different places.

Assays:
[1] = Electrotransport of sodium ketoprofen with enhancer (Example 5); type: in vitro ADME, human; conditions: for effect of 20% ethanol solvent on enhancer performance (in words) / effect on ketoprofen mass flux (in words) / effect on skin conductivity (in words): 100 mM ketoprofen; for effect of 20% ethanol solvent on enhancer performance (in words): 20 wt % ethanol/water; for effect on ketoprofen mass flux (in words) / effect on skin conductivity (in words): water alone
Protocol: (§1) Each floating epidermis was stretched essentially flat.
Sodium ketoprofen in aqueous solution forms an univalent anionic anti-inflammatory agent. The electrotransport delivery of 100 mM ketoprofen in the presence of cationic and non-ionic surfactants was tested under the conditions described in Example 1. The enhancers used were laurylamine and dimethyl lauramide. Two sets of tests were conducted. The first in aqueous solution, and the second in 20 wt % ethanol/water solution.

[2] = for effect on metoclopramide mass flux (in words) / effect on skin resistance / resistivity (in words): compared with control without enhancer; for Normalized Cell Voltage (after 5 hrs) / Normalized Metoclopramide Mass Flux (after 5 hrs): metoclopramide HCl 100 mg/ml, 100 μA/cm^2, 32° C.; for enhancer performance (in words): metoclopramide electrotransport
[3] = hydrophile-lipophile balance of the enhancer; cited from earlier work
[4] = Electrotransport of di-sodium cromolyn with enhancer (Example 4); type: in vitro ADME, human; conditions: concentration not given in b26; for lowering of skin resistivity: cromolyn donor, dodecylpyrrolidone 100 mM; for increase of cromolyn flux: dodecylpyrrolidone 100 mM in donor
Excerpt: as §1
Di-sodium cromolyn, when in aqueous solution, forms a divalent anion. The experimental conditions were as described in Example 1, except the cromolyn donor solution was placed in the cathodic compartment 46 and the Dulbecco's phosphate buffered saline receptor solution was placed in the anodic compartment 44; and the stratum corneum layer of skin disk 42 was mounted to face the cathodic compartment 46.
Dodecylpyrrolidone, when added to the donor solution, at a concentration of 100 mM, increased cromolyn flux by 50 to 100% and lowered skin resistivity by 30 to 70%.

[5] = for Normalized Cell Voltage (after 5 hrs): relative to no ethanol (1.00)
Protocol: as §1
The prior art teaches that ethanol can be used to enhance both passive and electrically-assisted transdermal drug delivery. […] The agent utilized, metoclopramide HCl, was placed in the donor compartment at about 100 mg metoclopramide/ml, and Dulbecco's phosphate buffered saline (pH 7) was placed in the receptor compartment. The system was maintained at 32° C. and a constant electric current of 100 μA/cm^2 was applied throughout the procedure.

[6] = tetracaine; electrotransport pretreatment with the enhancer
Protocol: Solutions of the drug to be transported through the skin disks 42, and each of the electrotransport enhancers to be tested were placed at different times in the anodic donor compartment 44. Dulbecco's phosphate buffered saline (approximately 0.1 5N NaCl, with minor amounts of other ions, pH 7.0) was placed in the cathodic receptor compartment 46. The skin resistance was calculated from the voltages applied by the galvanostat according to Ohm's law:
The electrotransport of tetracaine was also conducted with surfactant flux enhancers, such as decyl methyl sulfoxide.

[7] = Micelle formation of tetracaine; type: physicochemical
Protocol: Tetracaine is a much less electrophilic molecule than metoclopramide since it is positively charged at its tertiary amine group, but the rest of the molecule is very hydrophobic. Concentrations of tetracaine higher than 20 mg/ml (75 mM) lead to the formation of micelles, due to the highly surfactant nature of the drug. Lower concentrations of tetracaine may lead to a better showing of the effect of the enhancer.

[8] = relative to control without enhancer (1.00), enhancer 10 mM
[9] = relative to control (1.00), dodecylpyrrolidone 100 mM

CCCCCCCCCCCC(=O)N(C)C [Dimethyl lauramide]
effect of 20% ethanol solvent on enhancer performance (in words) [1]: improved the performance of both enhancers
effect on ketoprofen mass flux (in words) [1]: increased mass flux
effect on skin conductivity (in words) [1]: increased mass flux and skin conductivity
effect on ketoprofen flux and conductivity (in words) ([1]; dimethyl lauramide added to ketoprofen, general description): increase in both flux and conductivity
effect on metoclopramide mass flux (in words) [2]: almost doubling of the amount of the drug delivered
skin resistance relative to control ([2]; metoclopramide HCl donor, dimethyl lauramide added): about one-half that of the control
Normalized Cell Voltage (after 5 hrs) [2, 8]: .45
Normalized Metoclopramide Mass Flux (after 5 hrs) [2, 8]: 1.87
Normalized Cell Voltage (after 5 hrs) ([2]; relative to control without enhancer (1.00), enhancer 10 mM, listed as dimethyl lauramide): 0.45
HLB No. [3]: 8

CCCCCCCCCCCCN1CCCC1=O [Dodecyl pyrrolidone]
lowering of skin resistivity ([4]; listed as Dodecylpyrrolidone): 30 to 70%
lowering of skin resistivity ([4]; listed as dodecyl pyrrolidone): more than 30%
increase of cromolyn flux ([4]; listed as Dodecylpyrrolidone): 50 to 100%
increase of cromolyn flux ([4]; listed as dodecyl pyrrolidone): more than 50%
enhancer performance (in words) ([2]; listed as dodecyl pyrrolidone): superior characteristics
enhancer performance (in words) ([2]; listed as dodecylpyrrolidone): very effective enhancers
Normalized Cell Voltage (after 5 hrs) [2, 9]: .35
Normalized Metoclopramide Mass Flux (after 5 hrs) [2, 9]: 1.68
HLB No. [3]: 8

CCO [Ethanol, ethanol]
effect on mass flux of metoclopramide (in words) [5]: decreased the mass flux of metoclopramide
effect on skin conductivity (in words) ([5]; 10 to 30 wt % ethanol): decreased the mass flux of metoclopramide and the skin conductivity
Normalized Cell Voltage (after 5 hrs) ([5]; ethanol 10 wt %): 0.82
Normalized Cell Voltage (after 5 hrs) ([5]; ethanol 20 wt %): 0.70
Normalized Cell Voltage (after 5 hrs) ([5]; ethanol 30 wt %): 0.78

CCCCCCCCCCCCN [Lauryl amine]
effect of 20% ethanol solvent on enhancer performance (in words) [1]: improved the performance of both enhancers
effect on ketoprofen mass flux (in words) [1]: increased mass flux
effect on skin conductivity (in words) [1]: increased mass flux and skin conductivity
effect on metoclopramide mass flux (in words) [2]: significantly decreased the flux
Normalized Cell Voltage (after 5 hrs) [2, 8]: .22
Normalized Metoclopramide Mass Flux (after 5 hrs) [2, 8]: 0.136
HLB No. [3]: 11

CCCCCCCCCCCCOC(=O)C(C)O (stereo not shown) [Lauryl lactate, reference compound]
effect on skin resistance / resistivity (in words) ([2]; metoclopramide HCl donor): reduced skin resistivity
Normalized Cell Voltage (after 5 hrs) [2, 8]: .92
HLB No. [3]: 4.7

CCCCCCCCCCCCOS(=O)(=O)[O-].[Na+] [Sodium lauryl sulfate]
effect on metoclopramide mass flux (in words) [2]: enhanced mass flux
enhancer performance (in words) [2]: superior characteristics
Normalized Cell Voltage (after 5 hrs) [2, 8]: .76
Normalized Metoclopramide Mass Flux (after 5 hrs) [2, 8]: 1.64
HLB No. [3]: 40

CCCCCCCCCC[S+](C)[O-] (stereo not shown) [n-Decyl methyl sulfoxide]
Normalized Cell Voltage (after 5 hrs) [2, 8]: .44
decrease of cell voltage (in words) [6]: highly beneficial
HLB No. [3]: 32

CCCCNc1ccc(C(=O)OCCN(C)C)cc1 [tetracaine HCl]
concentration leading to the formation of micelles [7]: higher than 20 mg/ml and > 75 mM

Sorbitan monolaurate [reference compound]
effect on skin resistance / resistivity (in words) ([2]; metoclopramide HCl donor): fail to have a significant effect
Normalized Cell Voltage (after 5 hrs) [2, 8]: .98
HLB No. [3]: 8.6

lauramphocarboxy propionate [Lauramphocarboxypropionate, reference compound]
effect on skin resistance / resistivity (in words) ([2]; metoclopramide HCl donor): did not appear to affect
Normalized Cell Voltage (after 5 hrs) [2, 8]: .93
HLB No. [3]: 54
